Results from ChEMBL document CHEMBL1201862, “PubChem BioAssay data set” (2004).
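Five concentrations, 48 hours, 96-well plates. GI50 marks 50% less growth.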 Active and inactive are the calls of the source. Cut-off read from the data, not from the text of the source: active = GI50 up to about 1.1 µM and inactive = higher.

Legend:
Test in all cases: NCI tumour cell line growth inhibition, 48 h
DMS-273 = system: DMS-273
RXF 631 = system: RXF 631
KM-20L2 = system: KM-20L2
LXFL 529 = system: LXFL 529
XF498 = system: XF498
HOP-18 = system: HOP-18
SNB-78 = system: SNB-78
DMS-114 = system: DMS-114
M19-MEL = system: M19-MEL

SMILES | GI50 (DMS-273) | GI50 (RXF 631) | GI50 (KM-20L2) | GI50 (LXFL 529) | GI50 (XF498) | GI50 (HOP-18) | GI50 (SNB-78) | GI50 (DMS-114) | GI50 (M19-MEL)
COC(=O)C(=O)C(C(=O)C(=O)Nc1cccc(C(C)=O)c1)c1nc2ccc([N+](=O)[O-])cc2nc1O (stereo not given) | > 100 µM (inactive) | > 100 µM (inactive) | > 100 µM (inactive) | > 100 µM (inactive) | > 100 µM (inactive) | > 100 µM (inactive) | > 100 µM (inactive) | > 100 µM (inactive) | 
C[C@]12CCc3nonc3C1CC[C@@H]1C2CC[C@@]2(C)C1CC[C@@H]2O (stereo not given in full) | > 100 µM (inactive) | > 100 µM (inactive) | > 100 µM (inactive) | > 100 µM (inactive) | > 100 µM (inactive) | > 100 µM (inactive) | > 100 µM (inactive) | > 100 µM (inactive) | > 100 µM (inactive)
Cc1ccc(NC(=O)CCC(=O)C2CC(=O)CCC2=O)cc1C (stereo not given) | > 100 µM (inactive) | > 100 µM (inactive) | > 100 µM (inactive) | > 100 µM (inactive) |  | > 100 µM (inactive) | > 100 µM (inactive) | > 100 µM (inactive) | > 100 µM (inactive)
CN(/N=C/c1ccnc2ccccc12)c1c([N+](=O)[O-])cc([N+](=O)[O-])cc1[N+](=O)[O-] | > 100 µM (inactive) |  | > 100 µM (inactive) | 48.4 µM (inactive) | 70.1 µM (inactive) | > 100 µM (inactive) | 67.3 µM (inactive) | 37.9 µM (inactive) | > 100 µM (inactive)
COC(=O)/C=C(C)/C=C/c1cc(C(C)=O)c(C)o1 |  |  | > 100 µM (inactive) | 93.1 µM (inactive) | > 100 µM (inactive) | 46.9 µM (inactive) | > 100 µM (inactive) | 93.3 µM (inactive) | 
CC(C)C(NCc1c2ccccc2[n+]([O-])c2ccccc12)C(=O)O (stereo not given) | 38.9 µM (inactive) |  | 43.8 µM (inactive) | 35.1 µM (inactive) |  | 14.5 µM (inactive) | 68.2 µM (inactive) | 29.6 µM (inactive) | 
COc1ccccc1OCc1nnc(SCC(=O)O)n1-c1ccccc1 | > 100 µM (inactive) |  | > 100 µM (inactive) | > 100 µM (inactive) | > 100 µM (inactive) |  | > 100 µM (inactive) | > 100 µM (inactive) | 
CC(=O)O[C@H]1CC[C@@]2(C)C(=CC[C@@H]3C2CC[C@]2(C)Nc4oncc4CC32)C1 (stereo not given in full) | 26.9 µM (inactive) | 33.5 µM (inactive) | 90.6 µM (inactive) | 13 µM (inactive) | 31.5 µM (inactive) |  |  |  | 28.5 µM (inactive)
Cn1cc2ccccc2c1-c1nc(F)nc(Oc2ccc3c(c2)CC[C@@H]2C3CC[C@@]3(C)C2C[C@H](O)[C@@H]3O)n1 (stereo not given in full) | 10.3 µM (inactive) |  | 15.8 µM (inactive) | 13.8 µM (inactive) | 22.4 µM (inactive) | 22.3 µM (inactive) | 19.6 µM (inactive) | 12.3 µM (inactive) | 16.9 µM (inactive)
CN/N=C(/CC(=O)c1sc(NNC(C)=O)nc1C)C(=O)Nc1ccc(OC)cc1OC | > 100 µM (inactive) |  | > 100 µM (inactive) | > 100 µM (inactive) | > 100 µM (inactive) |  | > 100 µM (inactive) | > 100 µM (inactive) | > 100 µM (inactive)
O=C1c2ccc3c4ccccc4n(Cc4ccccc4)c3c2C(=O)N1c1ccccc1 | 12.4 µM (inactive) | 14.5 µM (inactive) | 20.9 µM (inactive) | 14.3 µM (inactive) |  | 12.1 µM (inactive) | 27.7 µM (inactive) | 17.9 µM (inactive) | 17.3 µM (inactive)
NC(=O)c1ccccc1NC(=O)C(=O)Cc1nc2ccccc2nc1O | > 100 µM (inactive) | > 100 µM (inactive) | > 100 µM (inactive) | > 100 µM (inactive) |  |  |  | 94.6 µM (inactive) | > 100 µM (inactive)
CC(C)c1cccc(C(C)C)c1NC1=CC(=O)C(=O)c2ccccc21 | > 100 µM (inactive) | > 100 µM (inactive) | > 100 µM (inactive) | > 100 µM (inactive) |  | > 100 µM (inactive) | > 100 µM (inactive) |  | 22.3 µM (inactive)
O=C(O)/C(=C/C=C/c1ccccc1)c1csc(-c2nc(/C(=C\C=C\c3ccccc3)C(=O)O)cs2)n1 |  |  | 35.8 µM (inactive) | 24.7 µM (inactive) |  |  | 27.2 µM (inactive) | 23.7 µM (inactive) | 31.1 µM (inactive)
Cc1ccc(C(O)/C(=N/N)c2nc3ccc([N+](=O)[O-])cc3nc2O)cc1 (stereo not given) | 83.4 µM (inactive) |  | 57.5 µM (inactive) | 67 µM (inactive) | 95.5 µM (inactive) |  | > 100 µM (inactive) | 33.9 µM (inactive) | > 100 µM (inactive)
CCCCCN(CCCCC)C(=O)[C@H](CCC(=O)OCc1ccccc1)NC(=O)c1cc2ccccc2[nH]1 | > 100 µM (inactive) | > 100 µM (inactive) | > 100 µM (inactive) | > 100 µM (inactive) |  | > 100 µM (inactive) | > 100 µM (inactive) | > 100 µM (inactive) | 
COC(=O)[C@H]1C2CC[C@@H]3C45C[C@@H](c6ccoc6)O[C@@H]4O[C@@H](O2)C31CCC5C (stereo not given in full) | > 100 µM (inactive) |  | > 100 µM (inactive) | 57.7 µM (inactive) | > 100 µM (inactive) | > 100 µM (inactive) | 25.7 µM (inactive) |  | 
O=C(NCc1ccc2ccc3cccnc3c2n1)c1ccc[n+](Cc2ccccc2)c1 | > 100 µM (inactive) | > 100 µM (inactive) | > 100 µM (inactive) | 67.6 µM (inactive) | > 100 µM (inactive) | > 100 µM (inactive) |  | 36.8 µM (inactive) | 60.8 µM (inactive)
COc1ccc2nc3ccccc3c(NCCCCN(C)CCCl)c2c1 | 0.0218 µM (active) | < 0.0185 µM (active) | 0.0277 µM (active) | < 0.013 µM (active) | 0.0369 µM (active) |  | 0.0596 µM (active) |  | 
COC(=O)C(C(=O)C(=O)Nc1cccc([N+](=O)[O-])c1)c1nc2ccc([N+](=O)[O-])cc2nc1O (stereo not given) | > 100 µM (inactive) | > 100 µM (inactive) | > 100 µM (inactive) | > 100 µM (inactive) | > 100 µM (inactive) | > 100 µM (inactive) | > 100 µM (inactive) | > 100 µM (inactive) | > 100 µM (inactive)
C/C(COc1ccccc1)=N\NC(N)=S | > 100 µM (inactive) |  | > 100 µM (inactive) | 44.5 µM (inactive) | 53.5 µM (inactive) |  | > 100 µM (inactive) | 62.7 µM (inactive) | > 100 µM (inactive)
COc1cc([C@@H]2OCC3C(c4ccc5c(c4)OCO5)OCC32)cc(OC)c1OC (stereo not given in full) | 76.4 µM (inactive) |  | > 100 µM (inactive) | 43.1 µM (inactive) | 52.6 µM (inactive) |  | > 100 µM (inactive) | 35.5 µM (inactive) | > 100 µM (inactive)
COc1cc2c(c(OC)c1OC)-c1ccc(SC)c(=O)cc1[C@@H](NC(=O)C(F)(F)F)CC2 | < 0.01 µM (active) |  | < 0.01 µM (active) | < 0.01 µM (active) | 0.0585 µM (active) | 26.5 µM (inactive) |  |  | 
C[N+](C)(C)CC(=O)N/N=C(\C(=O)NC1=C(Cl)C(=O)c2ccccc2C1=O)C(C#N)c1csc(-c2ccc([N+](=O)[O-])cc2)n1 (stereo not given) | > 100 µM (inactive) | > 100 µM (inactive) | > 100 µM (inactive) | > 100 µM (inactive) | > 100 µM (inactive) | > 100 µM (inactive) | > 100 µM (inactive) | > 100 µM (inactive) | > 100 µM (inactive)
CN1C(=O)CSC1=S [3-METHYL-RHODANINE] | > 100 µM (inactive) |  | > 100 µM (inactive) | > 100 µM (inactive) |  | > 100 µM (inactive) | > 100 µM (inactive) | > 100 µM (inactive) | > 100 µM (inactive)
C[C@H]1CCC/C=C/[C@@H]2C[C@H](O)C[C@H]2[C@H](O)/C=C/C(=O)O1 [BREFELDIN A] | 0.0266 µM (active) | 0.101 µM (active) | 0.0041 µM (active) | 0.00877 µM (active) | 0.00649 µM (active) | 2.81 µM (inactive) | 0.00675 µM (active) |  | 
CCCCCCCCCCCCCCCCOP(=O)([O-])OCC[N+](C)(C)C [MILTEFOSINE] | 6.92 µM (inactive) |  | > 10 µM (inactive) |  | 17.9 µM (inactive) | 39.4 µM (inactive) | 47.6 µM (inactive) | 32.6 µM (inactive) | 15.6 µM (inactive)
